In BindingDB's records for doi:10.1016/s0960-894x(98)00476-4 (University of Michigan, 1999):

Assay: Binding affinity against Opioid receptor delta 1

SMILES | Ki [µM]
CC1(C)SSC[C@@H](NC(=O)[C@@H](N)Cc2ccccc2)C(=O)N[C@@H](Cc2ccccc2)C(=O)N[C@H]1C(=O)O [10-(2-Amino-3-phenyl-propionylamino)-7-benzyl-3,3-dimethyl-6,9-dioxo-1,2-dithia-5,8-diaza-cycloundecane-4-carboxylic acid] | 0.042
CC1(C)SCCSC[C@@H](NC(=O)[C@@H](N)Cc2ccccc2)C(=O)N[C@@H](Cc2ccccc2)C(=O)N[C@H]1C(N)=O [12-(2-Amino-3-phenyl-propionylamino)-9-benzyl-5,5-dimethyl-8,11-dioxo-1,4-dithia-7,10-diaza-cyclotridecane-6-carboxylic acid amide] | 1.02
